# According to patent US20240217960A1, “TRIAZINE DERIVATIVE AS COVALENT INHIBITORS OF PI3K” (UNIVERSITÄT BASEL, priority 2021, published 2024):
# Like-named read-outs stand apart in the source and are kept apart here.
# Key:
# p110α (PI3Kα) = p110α (PI3Kα) (Homo sapiens, UniProt P42336); assay: Determination of kinetic constants (kinact, Ki) for p110α by LanthaScreen Technology; type: binding; conditions: for kinact: maximum potential rate of covalent bond formation, read-out: kinact PI3Kα; for kinact/KI: read-out: kinact/Ki PI3Kα
# Description: Maximum potential rate of covalent bond formation (kinact) and dissociation constant of the first reversible binding (Ki) of compounds for p110α were determined by LanthaScreen Technology (Life Technologies). The calculation of kinetic parameters was carried out through global fitting for numerical integration by using KinTek Global Kinetic Explorer modelling software^26-31.
# [1] = system: pSer473 of PKB/Akt in SKOV3 cells; assay: In Cell Western cellular PI3K signaling and IC50 determination; type: cell-based; conditions: Homo sapiens
# Description: Protein phosphorylation was detected as follows: pSer473 of PKB/Akt with rabbit polyclonal antibody from Cell Signaling Technology (CST) (#4058) by In-Cell Western assays, where 1.2×10^4 SKOV3 cells/well in 96-well plates were plated (Cell Carrier, PerkinElmer) for 24 hours (37° C., 5% CO2), as described in Ref. ^25.
# [2] = Intrinsic reactivity of the inhibitors (kchem) with βME measured with HPLC; type: physicochemical; conditions: 1 mM inhibitor + 600 mM βME, n = 3
# [3] = dissociation constant of the first reversible binding, global fitting with KinTek, read-out: Ki PI3Kα
# [4] = SK-OV-3, SKOV3 cells, 2 or 3 independent measurements, read-out: IC50 pPKB (S473) SKOV3
# [5] = SK-OV-3, read-out: IC50 pPKB (S473) SKOV3
# p110α (PI3Kα), sequence (P42336 whole entry): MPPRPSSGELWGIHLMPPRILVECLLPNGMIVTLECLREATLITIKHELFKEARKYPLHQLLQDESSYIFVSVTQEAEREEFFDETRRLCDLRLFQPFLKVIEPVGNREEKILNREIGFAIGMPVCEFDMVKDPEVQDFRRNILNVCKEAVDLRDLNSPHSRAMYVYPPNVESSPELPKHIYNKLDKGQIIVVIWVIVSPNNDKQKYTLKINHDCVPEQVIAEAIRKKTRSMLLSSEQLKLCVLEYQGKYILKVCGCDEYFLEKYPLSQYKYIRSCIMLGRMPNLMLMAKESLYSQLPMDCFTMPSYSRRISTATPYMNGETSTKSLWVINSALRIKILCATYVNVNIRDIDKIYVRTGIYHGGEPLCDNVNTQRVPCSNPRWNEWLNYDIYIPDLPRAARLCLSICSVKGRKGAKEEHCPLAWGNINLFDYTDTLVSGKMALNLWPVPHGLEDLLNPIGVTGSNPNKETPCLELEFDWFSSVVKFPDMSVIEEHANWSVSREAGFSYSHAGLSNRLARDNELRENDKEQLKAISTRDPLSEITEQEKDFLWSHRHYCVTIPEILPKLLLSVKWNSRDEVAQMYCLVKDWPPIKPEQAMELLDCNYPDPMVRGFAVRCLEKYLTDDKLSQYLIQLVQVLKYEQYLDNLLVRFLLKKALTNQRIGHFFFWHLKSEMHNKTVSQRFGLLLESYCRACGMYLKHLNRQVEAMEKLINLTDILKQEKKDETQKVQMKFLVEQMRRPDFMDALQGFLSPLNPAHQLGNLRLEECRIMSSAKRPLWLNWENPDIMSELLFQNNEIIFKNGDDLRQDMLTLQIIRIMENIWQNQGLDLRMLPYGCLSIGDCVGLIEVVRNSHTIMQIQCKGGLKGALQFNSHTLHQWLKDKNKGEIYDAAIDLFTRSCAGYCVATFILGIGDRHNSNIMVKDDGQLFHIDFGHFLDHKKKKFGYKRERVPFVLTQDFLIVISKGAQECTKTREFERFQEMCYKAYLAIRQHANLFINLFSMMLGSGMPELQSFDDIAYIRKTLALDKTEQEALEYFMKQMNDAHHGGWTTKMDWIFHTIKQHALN
# p110α (PI3Kα), sequence (P27986 whole entry partner): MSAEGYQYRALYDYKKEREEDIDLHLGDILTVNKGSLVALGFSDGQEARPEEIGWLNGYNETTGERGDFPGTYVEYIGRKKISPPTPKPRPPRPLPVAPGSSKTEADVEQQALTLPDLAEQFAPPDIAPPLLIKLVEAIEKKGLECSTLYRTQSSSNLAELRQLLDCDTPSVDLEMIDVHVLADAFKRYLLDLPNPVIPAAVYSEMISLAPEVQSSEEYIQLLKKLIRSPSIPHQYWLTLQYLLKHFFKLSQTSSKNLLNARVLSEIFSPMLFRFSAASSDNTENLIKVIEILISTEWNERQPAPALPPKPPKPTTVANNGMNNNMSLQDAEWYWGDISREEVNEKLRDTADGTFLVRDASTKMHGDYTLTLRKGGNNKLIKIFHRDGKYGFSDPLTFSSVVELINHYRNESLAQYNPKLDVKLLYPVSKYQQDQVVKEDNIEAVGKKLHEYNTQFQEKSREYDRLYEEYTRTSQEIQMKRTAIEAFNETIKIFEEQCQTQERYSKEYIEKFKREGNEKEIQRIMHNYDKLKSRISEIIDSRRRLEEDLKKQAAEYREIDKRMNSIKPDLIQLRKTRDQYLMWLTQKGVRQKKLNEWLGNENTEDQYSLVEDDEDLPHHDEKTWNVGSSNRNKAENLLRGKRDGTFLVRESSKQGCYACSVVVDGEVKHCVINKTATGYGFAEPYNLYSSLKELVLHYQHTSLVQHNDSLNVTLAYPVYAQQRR
Compound,Ki (p110α (PI3Kα); [3]),kinact (p110α (PI3Kα); global fitting with KinTek),kinact/KI (p110α (PI3Kα)),"IC50 [1, 4]",kchem (intrinsic reactivity of the inhibitors) [2],"IC50 [1, 5]","Ki (p110α (PI3Kα); Ki value determined after 60 min of drug incubation with PI3Kα, 2 independent measurements, read-out: Ki PI3Kα (footnote d))"
"C=CC(=O)N1CCC(Cc2ccc(C(=O)N3CCN(c4nc(-c5cnc(N)nc5C(F)F)nc(N5CCOCC5)n4)CC3)cc2)CC1 [Compound 100, 1-(4-(4-(4-(4-(2-amino-4-(difluoromethyl)pyrimidin-5-yl)-6-morpholino-1,3,5-triazin-2-yl)piperazine-1-carbonyl)benzyl)piperidin-1-yl)prop-2-en-1-one]",9.11 nM,0.000123 s⁻¹,13700 M⁻¹ s⁻¹,56 nM,0.000324 M⁻¹ s⁻¹,–,–
"C/C=C/C(=O)CCC(=O)N1CCN(c2nc(-c3cnc(N)nc3C(F)F)nc(N3CCOCC3)n2)CC1 [Compound 19, (E)-1-(4-(4-(2-amino-4-(difluoromethyl)pyrimidin-5-yl)-6-morpholino-1,3,5-triazin-2-yl)piperazin-1-yl)hept-5-ene-1,4-dione]",1.51 nM,0.0002 s⁻¹,130000 M⁻¹ s⁻¹,20 nM,0.0484 M⁻¹ s⁻¹,–,–
"CC(C)=CC(=O)CCCCCC(=O)N1CCN(c2nc(-c3cnc(N)nc3C(F)F)nc(N3CCOCC3)n2)CC1 [Compound 24, 1-(4-(4-(2-amino-4-(difluoromethyl)pyrimidin-5-yl)-6-morpholino-1,3,5-triazin-2-yl)piperazin-1-yl)-9-methyldec-8-ene-1,7-dione]",–,–,–,89.2 nM,0.000173 M⁻¹ s⁻¹,–,–
"C/C=C/C(=O)CCCC(=O)N1CCN(c2nc(-c3cnc(N)nc3C(F)F)nc(N3CCOCC3)n2)CC1 [Compound 20, (E)-1-(4-(4-(2-amino-4-(difluoromethyl)pyrimidin-5-yl)-6-morpholino-1,3,5-triazin-2-yl)piperazin-1-yl)oct-6-ene-1,5-dione]",6.69 nM,0.00121 s⁻¹,183000 M⁻¹ s⁻¹,38.8 nM,0.0806 M⁻¹ s⁻¹,–,–
"C=CC(=O)N1CCC(C(=O)N2CCN(c3nc(-c4cnc(N)nc4C(F)F)nc(N4CCOCC4)n3)CC2)CC1 [Compound 28, 1-(4-(4-(4-(2-amino-4-(difluoromethyl)pyrimidin-5-yl)-6-morpholino-1,3,5-triazin-2-yl)piperazine-1-carbonyl)piperidin-1-yl)prop-2-en-1-one]",10.8 nM,5.77e-05 s⁻¹,5390 M⁻¹ s⁻¹,51 nM,0.00041 M⁻¹ s⁻¹,–,–
"C=CC(=O)N1CCC(C(=O)NCC(=O)N2CCN(c3nc(-c4cnc(N)nc4C(F)F)nc(N4CCOCC4)n3)CC2)CC1 [Compound 43, 1-acryloyl-N-(2-(4-(4-(2-amino-4-(difluoromethyl)pyrimidin-5-yl)-6-morpholino-1,3,5-triazin-2-yl)piperazin-1-yl)-2-oxoethyl)piperidine-4-carboxamide]",–,–,–,–,0.00037 M⁻¹ s⁻¹,82 nM,–
"C=CC(=O)N1CCC(CC(=O)N2CCN(c3nc(-c4cnc(N)nc4C(F)F)nc(N4CCOCC4)n3)CC2)CC1 [Compound 35, 1-(4-(2-(4-(4-(2-amino-4-(difluoromethyl)pyrimidin-5-yl)-6-morpholino-1,3,5-triazin-2-yl)piperazin-1-yl)-2-oxoethyl)piperidin-1-yl)prop-2-en-1-one]",10.8 nM,9.84e-05 s⁻¹,9290 M⁻¹ s⁻¹,47 nM,0.000249 M⁻¹ s⁻¹,–,–
"C=CC(=O)N1CCC(C(=O)N(C)CC(=O)N2CCN(c3nc(-c4cnc(N)nc4C(F)F)nc(N4CCOCC4)n3)CC2)CC1 [Compound 54, 1-acryloyl-N-(2-(4-(4-(2-amino-4-(difluoromethyl)pyrimidin-5-yl)-6-morpholino-1,3,5-triazin-2-yl)piperazin-1-yl)-2-oxoethyl)-N-methylpiperidine-4-carboxamide]",–,–,–,–,0.000354 M⁻¹ s⁻¹,86 nM,–
"C=CC(=O)N1CCC(CCC(=O)N2CCN(c3nc(-c4cnc(N)nc4C(F)F)nc(N4CCOCC4)n3)CC2)CC1 [Compound 40, 1-(4-(3-(4-(4-(2-amino-4-(difluoromethyl)pyrimidin-5-yl)-6-morpholino-1,3,5-triazin-2-yl)piperazin-1-yl)-3-oxopropyl)piperidin-1-yl)prop-2-en-1-one]",8.56 nM,0.000292 s⁻¹,34300 M⁻¹ s⁻¹,48 nM,0.000307 M⁻¹ s⁻¹,–,–
"CN(C)C/C=C/C(=O)N1CCC(C(=O)N(C)CCC(=O)N2CCN(c3nc(-c4cnc(N)nc4C(F)F)nc(N4CCOCC4)n3)CC2)CC1 [Compound 58, (E)-N-(3-(4-(4-(2-amino-4-(difluoromethyl)pyrimidin-5-yl)-6-morpholino-1,3,5-triazin-2-yl)piperazin-1-yl)-3-oxopropyl)-1-(4-(dimethylamino)but-2-enoyl)-N-methylpiperidine-4-carboxamide]",12.2 nM,0.000406 s⁻¹,33600 M⁻¹ s⁻¹,260 nM,0.000386 M⁻¹ s⁻¹,–,–
"C=CC(=O)N1CCC(C(=O)N(C)CCC(=O)N2CCN(c3nc(-c4cnc(N)nc4C(F)F)nc(N4CCOCC4)n3)CC2)CC1 [Compound 57, 1-acryloyl-N-(3-(4-(4-(2-amino-4-(difluoromethyl)pyrimidin-5-yl)-6-morpholino-1,3,5-triazin-2-yl)piperazin-1-yl)-3-oxopropyl)-N-methylpiperidine-4-carboxamide]",14.6 nM,0.000378 s⁻¹,26100 M⁻¹ s⁻¹,250 nM,0.000388 M⁻¹ s⁻¹,–,–
"CC(C)=CC(=O)CCC(=O)N1CCN(c2nc(-c3cnc(N)nc3C(F)F)nc(N3CCOCC3)n2)CC1 [Compound 22, 1-(4-(4-(2-amino-4-(difluoromethyl)pyrimidin-5-yl)-6-morpholino-1,3,5-triazin-2-yl)piperazin-1-yl)-6-methylhept-5-ene-1,4-dione]",–,1.13e-05 s⁻¹,–,–,0.000188 M⁻¹ s⁻¹,–,–
"C/C=C/C(=O)CCCCC(=O)N1CCN(c2nc(-c3cnc(N)nc3C(F)F)nc(N3CCOCC3)n2)CC1 [Compound 2, (E)-1-(4-(4-(2-amino-4-(difluoromethyl)pyrimidin-5-yl)-6-morpholino-1,3,5-triazin-2-yl)piperazin-1-yl)non-7-ene-1,6-dione]",5.76 nM,0.00392 s⁻¹,693000 M⁻¹ s⁻¹,46.9 nM,0.0857 M⁻¹ s⁻¹,–,–
"C=CC(=O)NCCCC(=O)N1CCN(c2nc(-c3cnc(N)nc3C(F)F)nc(N3CCOCC3)n2)CC1 [Compound 13, N-(4-(4-(4-(2-amino-4-(difluoromethyl)pyrimidin-5-yl)-6-morpholino-1,3,5-triazin-2-yl)piperazin-1-yl)-4-oxobutyl)acrylamide]",5.36 nM,7.6e-05 s⁻¹,14200 M⁻¹ s⁻¹,–,0.000138 M⁻¹ s⁻¹,–,–
"C=CC(=O)CCCCC(=O)N1CCN(c2nc(-c3cnc(N)nc3C(F)F)nc(N3CCOCC3)n2)CC1 [Compound 1, 1-(4-(4-(2-amino-4-(difluoromethyl)pyrimidin-5-yl)-6-morpholino-1,3,5-triazin-2-yl)piperazin-1-yl)oct-7-ene-1,6-dione]",5.87 nM,0.0245 s⁻¹,4.2e+06 M⁻¹ s⁻¹,–,>>1.00 × 10^−1 M^−1 · s^−1,–,–
"C=CC(=O)N1CCC(C(=O)NCCC(=O)N2CCN(c3nc(-c4cnc(N)nc4C(F)F)nc(N4CCOCC4)n3)CC2)CC1 [Compound 48, 1-acryloyl-N-(3-(4-(4-(2-amino-4-(difluoromethyl)pyrimidin-5-yl)-6-morpholino-1,3,5-triazin-2-yl)piperazin-1-yl)-3-oxopropyl)piperidine-4-carboxamide]",14.1 nM,0.000253 s⁻¹,18000 M⁻¹ s⁻¹,664 nM,0.000452 M⁻¹ s⁻¹,–,–
"CC(C)=CC(=O)N(C)CCCC(=O)N1CCN(c2nc(-c3cnc(N)nc3C(F)F)nc(N3CCOCC3)n2)CC1 [Compound 11, N-(4-(4-(4-(2-amino-4-(difluoromethyl)pyrimidin-5-yl)-6-morpholino-1,3,5-triazin-2-yl)piperazin-1-yl)-4-oxobutyl)-N,3-dimethylbut-2-enamide]",–,–,–,–,<<1.00 × 10^−7 M^−1 · s^−1,–,6.95 nM
"CC(C)=CC(=O)CCCCC(=O)N1CCN(c2nc(-c3cnc(N)nc3C(F)F)nc(N3CCOCC3)n2)CC1 [Compound 5, 1-(4-(4-(2-amino-4-(difluoromethyl)pyrimidin-5-yl)-6-morpholino-1,3,5-triazin-2-yl)piperazin-1-yl)-8-methylnon-7-ene-1,6-dione]",10.1 nM,0.000187 s⁻¹,18700 M⁻¹ s⁻¹,52.8 nM,0.00022 M⁻¹ s⁻¹,–,–
"C/C=C/C(=O)CCCCCC(=O)N1CCN(c2nc(-c3cnc(N)nc3C(F)F)nc(N3CCOCC3)n2)CC1 [Compound 21, (E)-1-(4-(4-(2-amino-4-(difluoromethyl)pyrimidin-5-yl)-6-morpholino-1,3,5-triazin-2-yl)piperazin-1-yl)dec-8-ene-1,7-dione]",11.7 nM,0.016 s⁻¹,1.27e+06 M⁻¹ s⁻¹,44.5 nM,0.0632 M⁻¹ s⁻¹,–,–
